# Assay results published in publication PMC4984800, “A first in man, dose-finding study of the mTORC1/mTORC2 inhibitor OSI-027 in patients with advanced solid malignancies” (British Journal of Cancer, 2016).
# Where two headings read alike, the source gives them in different places.
# Assay: First-in-human trial: pharmacokinetics in plasma and urine
# Type: in vivo
# Details: for AUC(0-t): read-out: AUC24hr
# Experimental: Blood and urine samples were collected at prespecified time points for 24 h after initial dose and at days 2–3 (S2) and after multiple doses on days 3–4 (S1) and 22–23 (S3) across dose levels. Predose samples were collected on days 8, 15 and 22. Urine samples were collected during cycle 1.
# Descriptive statistics were used to summarise the safety data, including all patients who received at least one dose of OSI-027. All patients who completed the pharmacokinetic sampling were included in the PK analyses, which used descriptive statistics to summarise AUC0–∞, AUC0–t, Cmax, Clast, Tmax, Tlast, %AUC extrapolated, T1/2, clearance (Cl/F) and volume of distribution (Vz/F). Exploratory analysis were planned to correlate pharmacodynamics and pharmacokinetics. Response to treatment was evaluated according to Response Evaluation Criteria in Solid Tumors (RECIST) ([Therasse et al, 2000]).
# [1] = human, plasma, oral, 35 mg, Schedule 3, 35 mg, Day 22, N=4, median (range)
# [2] = human, plasma, oral, 40 mg, Schedule 2, 40 mg, N=3, median (range)
# [3] = human, plasma, oral, 40 mg, Schedule 3, 40mg, Day 1, N=6, median (range)
# [4] = human, plasma, oral, 40 mg, Schedule 3, 40mg, Day 22, N=4, median (range)
# [5] = human, plasma, oral, 45 mg, Schedule 1, 45 mg, Day 1, N=3, median (range)
# [6] = human, plasma, oral, 45 mg, Schedule 1, 45 mg, Day 3, N=3, median (range)
# [7] = human, plasma, oral, 50 mg, Schedule 3, 50 mg, Day 1, N=3, median (range)
# [8] = human, plasma, oral, 50 mg, Schedule 3, 50 mg, Day 22, N=1
# [9] = human, plasma, oral, 65 mg, Schedule 1, 65 mg, Day 1, N=3, median (range)
# [10] = human, plasma, oral, 65 mg, Schedule 1, 65 mg, Day 3, N=3, median (range)
# [11] = human, plasma, oral, 80 mg, Schedule 2, 80 mg, N=4, median (range)
# [12] = human, plasma, oral, 90 mg, Schedule 1, 90 mg, Day 1, N=14, median (range)
# [13] = human, plasma, oral, 90 mg, Schedule 1, 90 mg, Day 3, N=14, median (range)
# [14] = human, plasma, oral, 120 mg, Schedule 1, 120 mg, Day 1, N=14, median (range)
# [15] = human, plasma, oral, 120 mg, Schedule 1, 120 mg, Day 3, N=13, median (range)
# [16] = human, plasma, oral, 160 mg, Schedule 1, 160 mg, Day 1, N=5, median (range)
# [17] = human, plasma, oral, 160 mg, Schedule 1, 160 mg, Day 3, N=5, median (range)
# [18] = human, plasma, oral, 160 mg, Schedule 2, 160 mg, N=3, median (range)
# [19] = human, plasma, oral, 240 mg, Schedule 2, 240mg, N=15, median (range)
smiles,measurement,setting,value
COc1cccc2cc(-c3nc([C@H]4CC[C@H](C(=O)O)CC4)n4ncnc(N)c34)[nH]c12 [OSI-027],Cmax,[1],2.3 µg/mL
same,AUC(0-t),[1],31.2 µg·h/mL
same,half-life,"human, plasma, oral, 35 mg, Schedule 3, 35 mg, Day 22, N=4, median (range), read-out: T1/2 (converted)",11.1 h
same,AUC(0-inf),[2],28.6 µg·h/mL
same,Cmax,[2],2.51 µg/mL
same,half-life,"human, plasma, oral, 40 mg, Schedule 2, 40 mg, N=3, median (range), read-out: T1/2 (converted)",12.4 h
same,AUC(0-inf),[3],77.1 µg·h/mL
same,Cmax,[3],3.14 µg/mL
same,half-life,"human, plasma, oral, 40 mg, Schedule 3, 40mg, Day 1, N=6, median (range), read-out: T1/2 (converted)",17.8 h
same,Cmax,[4],3 µg/mL
same,AUC(0-t),[4],50.1 µg·h/mL
same,half-life,"human, plasma, oral, 40 mg, Schedule 3, 40mg, Day 22, N=4, median (range), read-out: T1/2 (converted)",15.9 h
same,AUC(0-inf),[5],31.1 µg·h/mL
same,Cmax,[5],2.77 µg/mL
same,half-life,"human, plasma, oral, 45 mg, Schedule 1, 45 mg, Day 1, N=3, median (range), read-out: T1/2 (converted)",7.65 h
same,Cmax,[6],3.85 µg/mL
same,AUC(0-t),[6],35.1 µg·h/mL
same,half-life,"human, plasma, oral, 45 mg, Schedule 1, 45 mg, Day 3, N=3, median (range), read-out: T1/2 (converted)",9.14 h
same,AUC(0-inf),[7],46.2 µg·h/mL
same,Cmax,[7],3.04 µg/mL
same,half-life,"human, plasma, oral, 50 mg, Schedule 3, 50 mg, Day 1, N=3, median (range), read-out: T1/2 (converted)",10.3 h
same,Cmax,[8],1.11 µg/mL
same,AUC(0-t),[8],17.2 µg·h/mL
same,AUC(0-inf),[9],50 µg·h/mL
same,Cmax,[9],4.75 µg/mL
same,half-life,"human, plasma, oral, 65 mg, Schedule 1, 65 mg, Day 1, N=3, median (range), read-out: T1/2 (converted)",7.01 h
same,Cmax,[10],5.55 µg/mL
same,AUC(0-t),[10],64.4 µg·h/mL
same,half-life,"human, plasma, oral, 65 mg, Schedule 1, 65 mg, Day 3, N=3, median (range), read-out: T1/2 (converted)",8.46 h
same,AUC(0-inf),[11],52.6 µg·h/mL
same,Cmax,[11],3.89 µg/mL
same,half-life,"human, plasma, oral, 80 mg, Schedule 2, 80 mg, N=4, median (range), read-out: T1/2 (converted)",9.22 h
same,AUC(0-inf),[12],90.3 µg·h/mL
same,Cmax,[12],5.44 µg/mL
same,half-life,"human, plasma, oral, 90 mg, Schedule 1, 90 mg, Day 1, N=14, median (range), read-out: T1/2 (converted)",12.1 h
same,Cmax,[13],7.01 µg/mL
same,AUC(0-t),[13],69.6 µg·h/mL
same,half-life,"human, plasma, oral, 90 mg, Schedule 1, 90 mg, Day 3, N=14, median (range), read-out: T1/2 (converted)",12 h
same,AUC(0-inf),[14],87.6 µg·h/mL
same,Cmax,[14],5.59 µg/mL
same,half-life,"human, plasma, oral, 120 mg, Schedule 1, 120 mg, Day 1, N=14, median (range), read-out: T1/2 (converted)",10.2 h
same,Cmax,[15],5.45 µg/mL
same,AUC(0-t),[15],54.5 µg·h/mL
same,half-life,"human, plasma, oral, 120 mg, Schedule 1, 120 mg, Day 3, N=13, median (range), read-out: T1/2 (converted)",12.8 h
same,AUC(0-inf),[16],131 µg·h/mL
same,Cmax,[16],9.33 µg/mL
same,half-life,"human, plasma, oral, 160 mg, Schedule 1, 160 mg, Day 1, N=5, median (range), read-out: T1/2 (converted)",10.3 h
same,Cmax,[17],11 µg/mL
same,AUC(0-t),[17],106 µg·h/mL
same,half-life,"human, plasma, oral, 160 mg, Schedule 1, 160 mg, Day 3, N=5, median (range), read-out: T1/2 (converted)",11.9 h
same,AUC(0-inf),[18],267 µg·h/mL
same,Cmax,[18],7.62 µg/mL
same,half-life,"human, plasma, oral, 160 mg, Schedule 2, 160 mg, N=3, median (range), read-out: T1/2 (converted)",24.7 h
same,AUC(0-inf),[19],125 µg·h/mL
same,Cmax,[19],8.78 µg/mL
same,half-life,"human, plasma, oral, 240 mg, Schedule 2, 240mg, N=15, median (range), read-out: T1/2 (converted)",13.8 h
same,half-life,"human, plasma, oral, patients, estimate, based on the weekly dose schedule, read-out: half-life (converted)",~14 h
same,half-life,"human, plasma, oral, patients, range over groups, read-out: half-life, range",8 to 25 h
same,Tmax,"human, plasma, oral, patients, across dose levels",≤ 4 h
same,exposure versus dose,patients,dose proportional
same,"urinary excretion of unchanged OSI-027, range",patients,1–7%
same,half-life,"patients, estimate, based on the weekly dose schedule",14 h
